Laboratory results reported in patent US20250382332A1, “NOVEL ALPHA-FACTOR BASED PEPTIDES WITH ANTIFUNGAL ACTIVITY” (INVAIO SCIENCES, INC., priority 2024, published 2025).
Peptide text beside a SMILES is read from it.

System: Botrytis cinerea (B05.10)
Assay: Resazurin antifungal assay of 180 alpha-factor peptide variants towards Botrytis (Example 2)
Format: cell-based
Design: key to active against Botrytis at 15 μM / active against Botrytis at 10 μM: Peptides that showed greater than 90% inhibition were considered active against Botrytis
Details: for Inhibition at 10 μM / Inhibition at 20 μM / Inhibition at 50 μM / Inhibition at 100 μM / Inhibition at 15 μM: % inhibition of fungal growth, Botrytis conidia, resazurin; for Inhibition at 20 μM: peptide 20 μM; for Inhibition at 50 μM: peptide 50 μM; for Inhibition at 100 μM: peptide 100 μM; for Inhibition at 15 μM / active against Botrytis at 15 μM: peptide 15 μM
Method in brief: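 B. cinerea B05.10 conidia (5000/well) were exposed to peptides at 100, 50, 20, 15 and 10 μM final for 24 h at 20° C. Resazurin was then added and fluorescence read at 570/620 nm. Percent growth inhibition was calculated against conidia-only wells, with four technical replicates.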

Compound	Inhibition at 10 μM (peptide 10 μM) [%]	Inhibition at 20 μM [%]	Inhibition at 50 μM [%]	Inhibition at 100 μM [%]	Inhibition at 15 μM [%]	active against Botrytis at 15 μM	active against Botrytis at 10 μM (peptide 10 μM)
CC[C@H](C)[C@H](NC(=O)[C@H](CCCCN)NC(=O)[C@H](CC(C)C)NC(=O)[C@H](CCC(N)=O)NC(=O)[C@H](CC(C)C)NC(=O)[C@@H](NC(=O)[C@H](CCCCN)NC(=O)[C@@H](N)Cc1c[nH]c2ccccc12)[C@@H](C)O)C(=O)NCC(=O)N[C@@H](C)C(=O)N1CCC[C@H]1C(=O)N[C@@H](CCSC)C(=O)N[C@@H](Cc1ccc(O)cc1)C(=O)O [compound 60] (H-WKTLQLKIGAPMY-OH; N-terminus and C-terminus assumed)	<90	<90	100	100	–	–	–
CC[C@H](C)[C@H](NC(=O)[C@H](CCC(N)=O)NC(=O)[C@H](CC(C)C)NC(=O)[C@H](Cc1c[nH]c2ccccc12)NC(=O)[C@H](CCCNC(=N)N)NC(=O)[C@@H](N)CCCCN)C(=O)N[C@@H](CCCNC(=N)N)C(=O)N1CCC[C@H]1C(=O)NCC(=O)N[C@@H](CCC(=O)O)C(=O)N1CCC[C@H]1C(=O)N[C@@H](CCSC)C(=O)N[C@@H](Cc1ccc(O)cc1)C(=O)O [compound 109] (H-KRWLQIRPGEPMY-OH; N-terminus and C-terminus assumed)	<90	<90	<90	98.64	–	–	–
CC[C@H](C)[C@H](NC(=O)[C@H](CC(=O)O)NC(=O)[C@H](CCCNC(=N)N)NC(=O)[C@@H](N)Cc1c[nH]c2ccccc12)C(=O)N[C@@H](CCCNC(=N)N)C(=O)N[C@@H](CC(C)C)C(=O)N[C@@H](CCCCN)C(=O)N[C@@H](CCCCN)C(=O)NCC(=O)N[C@@H](CCC(N)=O)C(=O)N1CCC[C@H]1C(=O)N[C@@H](CCSC)C(=O)N[C@@H](Cc1ccc(O)cc1)C(=O)O [compound 79] (H-WRDIRLKKGQPMY-OH; N-terminus and C-terminus assumed)	<90	<90	100	100	–	–	–
CSCC[C@H](NC(=O)[C@@H]1CCCN1C(=O)[C@H](CCC(N)=O)NC(=O)CNC(=O)[C@@H](NC(=O)[C@H](CCCCN)NC(=O)[C@H](CC(C)C)NC(=O)[C@H](CO)NC(=O)CNC(=O)[C@H](Cc1c[nH]c2ccccc12)NC(=O)[C@H](Cc1c[nH]cn1)NC(=O)[C@@H](N)Cc1c[nH]c2ccccc12)C(C)C)C(=O)N[C@@H](Cc1ccc(O)cc1)C(=O)O [compound 82] (H-WHWGSLKVGQPMY-OH; N-terminus and C-terminus assumed)	<90	<90	100	100	–	–	–
CSCC[C@H](NC(=O)[C@@H]1CCCN1C(=O)[C@H](CCC(N)=O)NC(=O)CNC(=O)[C@@H]1CCCN1C(=O)[C@H](CCCCN)NC(=O)[C@H](CC(C)C)NC(=O)[C@H](C)NC(=O)[C@H](CC(C)C)NC(=O)CNC(=O)CNC(=O)[C@@H](N)Cc1c[nH]c2ccccc12)C(=O)N[C@@H](Cc1ccc(O)cc1)C(=O)O [compound 48] (H-WGGLALKPGQPMY-OH; N-terminus and C-terminus assumed)	–	–	<90	<90	–	–	–
CSCC[C@H](NC(=O)[C@@H]1CCCN1C(=O)[C@H](CCC(N)=O)NC(=O)CNC(=O)[C@@H]1CCCN1C(=O)[C@H](Cc1ccc(O)cc1)NC(=O)[C@H](CC(C)C)NC(=O)[C@H](CCC(N)=O)NC(=O)[C@@H](NC(=O)[C@H](Cc1c[nH]c2ccccc12)NC(=O)[C@H](CCC(=O)O)NC(=O)[C@@H](N)CCCCN)C(C)C)C(=O)N[C@@H](Cc1ccc(O)cc1)C(=O)O [compound 125] (H-KEWVQLYPGQPMY-OH; N-terminus and C-terminus assumed)	–	–	<90	<90	–	–	–
CSCC[C@H](NC(=O)[C@@H]1CCCN1C(=O)[C@H](CCC(N)=O)NC(=O)CNC(=O)[C@@H]1CCCN1C(=O)[C@H](CCCCN)NC(=O)[C@H](Cc1ccccc1)NC(=O)[C@H](CCCCN)NC(=O)[C@H](CC(C)C)NC(=O)[C@H](Cc1ccc(O)cc1)NC(=O)[C@H](Cc1c[nH]cn1)NC(=O)[C@@H](N)CCCCN)C(=O)N[C@@H](Cc1ccc(O)cc1)C(=O)O [compound 72] (H-KHYLKFKPGQPMY-OH; N-terminus and C-terminus assumed)	<90	100	100	100	98.60	active	–
CC[C@H](C)[C@H](NC(=O)[C@H](Cc1c[nH]c2ccccc12)NC(=O)[C@H](Cc1c[nH]cn1)NC(=O)[C@@H]1CCCN1)C(=O)N[C@@H](CCC(N)=O)C(=O)N[C@@H](CC(C)C)C(=O)N[C@@H](Cc1ccccc1)C(=O)N[C@@H](CC(N)=O)C(=O)NCC(=O)N[C@@H](CCC(N)=O)C(=O)N1CCC[C@H]1C(=O)N[C@@H](CCSC)C(=O)N[C@@H](Cc1ccc(O)cc1)C(=O)O [compound 37] (H-PHWIQLFNGQPMY-OH; N-terminus and C-terminus assumed)	–	–	<90	<90	–	–	–
CSCC[C@H](NC(=O)CNC(=O)[C@H](CO)NC(=O)CNC(=O)[C@@H]1CCCN1C(=O)[C@H](CCCCN)NC(=O)[C@H](Cc1ccccc1)NC(=O)[C@H](CCC(N)=O)NC(=O)[C@H](CC(C)C)NC(=O)[C@H](Cc1c[nH]c2ccccc12)NC(=O)[C@H](Cc1c[nH]cn1)NC(=O)[C@@H](N)CCCCN)C(=O)N[C@@H](Cc1ccc(O)cc1)C(=O)O [compound 64] (H-KHWLQFKPGSGMY-OH; N-terminus and C-terminus assumed)	<90	98.09	100	100	<90	–	–
CC[C@H](C)[C@H](NC(=O)CNC(=O)[C@H](CCCNC(=N)N)NC(=O)[C@@H](N)CCCCN)C(=O)N[C@@H](CC(N)=O)C(=O)N[C@@H](CC(C)C)C(=O)N[C@@H](CCCCN)C(=O)N1CCC[C@H]1C(=O)NCC(=O)N[C@@H](CCC(N)=O)C(=O)N1CCC[C@H]1C(=O)N[C@@H](CCSC)C(=O)N[C@@H](Cc1ccc(O)cc1)C(=O)O [compound 104] (H-KRGINLKPGQPMY-OH; N-terminus and C-terminus assumed)	<90	<90	<90	99.59	–	–	–
CSCC[C@H](NC(=O)[C@@H]1CCCN1C(=O)[C@H](CCC(N)=O)NC(=O)CNC(=O)[C@@H]1CCCN1C(=O)[C@H](CCCCN)NC(=O)[C@H](Cc1ccccc1)NC(=O)[C@H](CCCNC(=N)N)NC(=O)[C@H](CC(C)C)NC(=O)[C@H](Cc1c[nH]c2ccccc12)NC(=O)[C@H](Cc1c[nH]cn1)NC(=O)[C@@H]1CCCN1)C(=O)N[C@@H](Cc1ccc(O)cc1)C(=O)O [compound 5] (H-PHWLRFKPGQPMY-OH; N-terminus and C-terminus assumed)	<90	<90	100	100	–	–	–
CSCC[C@H](NC(=O)[C@@H]1CCCN1C(=O)[C@H](CCC(N)=O)NC(=O)CNC(=O)[C@H](C)NC(=O)[C@H](CCCNC(=N)N)NC(=O)[C@H](CC(C)C)NC(=O)[C@H](CCCNC(=N)N)NC(=O)CNC(=O)[C@H](Cc1c[nH]c2ccccc12)NC(=O)[C@H](Cc1c[nH]cn1)NC(=O)[C@@H](N)CCCCN)C(=O)N[C@@H](Cc1ccc(O)cc1)C(=O)O [compound 68] (H-KHWGRLRAGQPMY-OH; N-terminus and C-terminus assumed)	97.09	100	100	100	99.23	active	active
CSCC[C@H](NC(=O)[C@H](CCC(N)=O)NC(=O)[C@@H](N)Cc1c[nH]c2ccccc12)C(=O)N[C@@H](CC(C)C)C(=O)N[C@@H](CCCCN)C(=O)N[C@@H](CC(C)C)C(=O)N[C@@H](CCCCN)C(=O)N[C@@H](Cc1ccc(O)cc1)C(=O)NCC(=O)N[C@@H](CCC(N)=O)C(=O)N1CCC[C@H]1C(=O)N[C@@H](CCSC)C(=O)N[C@@H](Cc1ccc(O)cc1)C(=O)O [compound 138] (H-WQMLKLKYGQPMY-OH; N-terminus and C-terminus assumed)	–	–	<90	<90	–	–	–
CC[C@H](C)[C@H](NC(=O)[C@H](CO)NC(=O)[C@H](CCCCN)NC(=O)[C@@H](N)Cc1c[nH]c2ccccc12)C(=O)N[C@@H](CC(N)=O)C(=O)N[C@@H](Cc1ccccc1)C(=O)N[C@@H](CCCCN)C(=O)N1CCC[C@H]1C(=O)NCC(=O)N[C@@H](CCC(N)=O)C(=O)N1CCC[C@H]1C(=O)N[C@@H](CCSC)C(=O)N[C@@H](Cc1ccc(O)cc1)C(=O)O [compound 127] (H-WKSINFKPGQPMY-OH; N-terminus and C-terminus assumed)	–	–	<90	<90	–	–	–
CSCC[C@H](NC(=O)[C@@H]1CCCN1C(=O)[C@H](CCC(N)=O)NC(=O)CNC(=O)[C@H](CO)NC(=O)[C@H](CCCCN)NC(=O)[C@H](CC(C)C)NC(=O)[C@H](CC(N)=O)NC(=O)[C@H](CC(C)C)NC(=O)[C@H](Cc1ccccc1)NC(=O)[C@H](Cc1c[nH]cn1)NC(=O)[C@@H](N)CCCCN)C(=O)N[C@@H](Cc1ccc(O)cc1)C(=O)O [compound 27] (H-KHFLNLKSGQPMY-OH; N-terminus and C-terminus assumed)	–	–	90.58	100	–	–	–
CSCC[C@H](NC(=O)[C@@H]1CCCN1C(=O)[C@H](CCC(N)=O)NC(=O)CNC(=O)[C@@H]1CCCN1C(=O)[C@H](CCCCN)NC(=O)[C@H](Cc1ccccc1)NC(=O)[C@H](CC(N)=O)NC(=O)[C@H](CC(C)C)NC(=O)[C@H](CC(C)C)NC(=O)[C@H](Cc1c[nH]cn1)NC(=O)[C@@H]1CCCN1)C(=O)N[C@@H](Cc1ccc(O)cc1)C(=O)O [compound 41] (H-PHLLNFKPGQPMY-OH; N-terminus and C-terminus assumed)	–	–	<90	<90	–	–	–
